Data published in patent publication US9844535B2, “SHP2 inhibitors and methods of treating autoimmune and/or glomerulonephritis-associated diseases using SHP2 inhibitors” (Indiana University Research and Technology Corporation, priority 2013, dated 2017).
Entries after “also recorded” stand apart in the source; their conditions may differ.

Columns and labels:
[1] = tested on: T cells isolated from the spleen of SLE-prone mice; experiment: Proliferation and viability of cultured mouse T cells; format: cell-based
Protocol: Whole tissue cell cultures prepared from mouse spleen and axillary lymph nodes were generated as described above. From within this total cell preparation, total T cells from spleen and the double negative T cells from axillary lymph nodes were further purified through negative selection using a pan T cell isolation kit from Milenyi Biotec (San Diego, Calif.). […] Next, 20 μl of anti-biotin beads were added per 1×10^7 cells and the reaction was kept on ice for another 30 minutes. After centrifuging at 2000 rpm for 5 minutes at 4° C., the pellet was resuspended in 2 ml of T cell isolation buffer (D-PBS, pH7.2, 0.5% FBS and 2 mM EDTA) and the T cells were purified through a magnetic sorting column (MACS).
The purity of isolated T cells routinely exceeded 94%. After purification, T cells were resuspended in RPMI1640 medium with 10% FBS and 1×10^5 cells/well in 100 ul total volume was loaded onto a 96-well plate, either left uncoated or precoated with anti-CD3 antibody (1 ug/ml) (OKT3; Biolegend). All cells loaded onto wells precoated with anti-CD3 antibody were also mixed with anti-CD28 antibody (0.5 μg/ml) (CD28.2; BioLegend) to help potentiate the T cell signaling response. Plated cells were cultured for 48 hours in either the presence of vehicle (DMSO) or Shp2 inhibitor (10 μg/ml). Following the incubation, 15 μl of medium was collected for various cytokine activity analyses.
For cell viability, an MTT (thiazolyl Blue tetrazolium Bromide, M2128, Sigma, St. Louis, Mo.) assay was employed. Briefly, 10 μl of the MTT labeling reagent (final concentration 0.5 mg/ml) was loaded into each cell culture well (96-well plate) and then incubated for 4 hours in a humidified chamber. Following incubation, 100 μl of solubilization solution (0.04N in absolute isopropanol) was added to each well, resuspended, and then incubated at 37° C. for an additional hour. Spectrophotometric absorbance of the samples was assessed using a microplate reader at a wavelength of 595 nm. T cell numbers/proliferation was assessed by cell count using a hemocytometer. In brief, 1×10^5 cells were plated in wells and cultured for 48 hours. 10 μl of cell suspension was then removed and mixed together with 10 μl of trypan blue solution (0.4%, T8154, Sigma). After mixing, 10 μl of the mixture was loaded onto the hemocytometer and the total average number of cells/well was calculated.
Moreover, the proliferative effects observed were specific to the double-negative T cell population (FIG. 20A).

[2] = tested on: SLE-prone mice hearts; experiment: Echocardiography; format: in vivo, mouse; settings: vs vehicle-treated SLE mice
Protocol: Transthoracic echocardiography was conducted on non-anesthetized animals as described previously in Marin et al., J Clin Invest. 2011; 121:1026-1043, with a 13-MHz probe (Vivid 7, GE Medical Systems, Boston, Mass.) or VisualSonics Vevo 770 high-frequency ultrasound rodent imaging system (VisualSonics, Toronto, Ontario). GE Medical Systems or VisualSonics Vevo 770 software was used for data acquisition and subsequent analysis. Hearts were imaged in the 2-dimensional parasternal short-axis view, and an M-mode echocardiogram of the midventricular region was recorded at the level of the papillary muscles. Calculations of cardiac anatomic and functional parameters were carried out as described in Marin et al., J Clin Invest. 2011; 121:1026-1043.

[3] = tested on: circulating blood cells of SLE-prone mice; experiment: Blood cell counts and circulating lymphocyte subsets; format: in vivo, mouse
Protocol: 50 μl of peripheral blood was collected from mice upon sacrifice and was mixed with 5 mM EDTA anticoagulant to be used for blood cell counts (Hemavet 850FS), to determine numbers of white blood cells (neutrophil, lymphocytes, monocytes, eosinophil and basophil), red blood cells and platelets. In addition, peripheral blood isolated from MRL/lpr mice either treated with vehicle (DMSO) or SHP2 inhibitor was used to count the percentage of lymphocyte subsets, including B cells, CD4+, CD8+ and double negative (DN) T cells through flow cytometry (see below).
To identify immune cell subsets, isolated cells from tissues were immunostained with mouse antibodies targeted against CD3E (145-2C11, BioLegend, San Diego, Calif.), CD4 (GK1.5, BioLegend), CD8 (53-6.7, eBioscience, San Diego, Calif.), CD45 (30-F11, eBioscience), CD 19 (6125, BioLegend), CD11b (M1170, BioLegend), TCRαβ (H57-597, BioLegend), CD44 (IM7, BioLegend), B220 (RA3-6B2, B.D. […], BD Biosciences, San Jose Calif.), CD138 (281-2, BioLegend), CD38 (CD28.2, BioLegend), Gr-1 (RB6.805, eBioscience), CD62L (DREG-56, BioLegend), and CD25 (PC61, BioLegend) for 30 minutes at 4° C. Samples were acquired on a LSR II flow cytometer (BD Biosciences) and the percentage of each sub-population of cells (B, T, monocytes, macrophage and neutrophils) was assessed by FlowJo [version 7.2.2 (Tree Star)]. Total cell numbers were counted using a hemocytometer. Absolute cell numbers for each sub-population were calculated based on the percentage of each population.

[4] = tested on: serum IgG and anti dsDNA IgG; experiment: Serum IgG and anti-dsDNA IgG ELISA; format: in vivo, mouse; settings: SLE mice serum
Excerpt: ELISA assays were used to detect for the presence of various cytokines in mouse serum isolated from vehicle or drug-treated animals or from medium supernatant isolated from tissue cell cultures as described above. In addition, ELISA was also used to detect total IgG and dsDNA IgG from mouse serum and for the assay to detect urine albumin and creatinine levels. ELISA detection kits for mouse cytokines IL-6 and TNFα were purchased from eBioscience, mouse cytokines IL-17A, IFNγ, and human IFNγ were purchased from Biolegend, kits for the albumin and creatinine were purchased from Exocell, and kits for the serum IgG and anti-dsDNA IgG were purchased from Alpha Diagnostic (San Antonio, Tex.). ELISAs were all performed according to the manufacturer's instructions.
Serum IgG and anti-dsDNA IgG: 100 μl of 1:50000× diluted serum for IgG and 100 μl of 1:20000× diluted serum for dsDNA IgG were used and loaded onto a precoated 96-well plate in duplicate for 1 hour at room temperature. […] The OD of the wells was determined using a microplate reader set at a wavelength of 450 nm.
In this Example, the effect of the SHP2 inhibitor, L97M74, on the onset of SLE disease progression was evaluated by measuring the levels of auto antibodies in SLE inhibitor-treated versus vehicle-treated mice through detection anti-histone antibodies and anti-IgG by ELISA.

SMILES: Cn1c(-c2cccc(NC(=O)C(=O)Nc3ccc(-c4ccsc4)cc3)c2)c(I)c2cc(C(=O)O)c(O)cc21 [11a-1]
- total number / proliferation of double-negative T cells ([1]; MRL/lpr, CD3 activation, 48 hours culture, listed as SHP2 inhibitor): decreased the total number of double-negative T cells; also recorded: decreases proliferation
- viability of tissue-cultured double-negative T cells ([1]; MTT, absence or presence of CD3 ab, listed as SHP2 inhibitor): did not affect viability; also recorded: does not affect viability
- total T cell viability ([1]; MTT, absence or presence of CD3 antibody): no effect on total T cell viability
- inactive and CD3 activated T cell proliferation ([1]; SLE mouse splenic T cells, 48 hours culture): significantly inhibited
- effects in WT or MRL/MpJ control cells ([1]; presence or absence of stimulation): No effects were observed
- cardiac functional parameters [2]: significantly improved functional parameters
- left ventricular chamber dimension [2]: decreased chamber
- posterior wall thickness [2]: increased posterior wall measurements
- circulating CD4 and CD8 positive T cell populations ([3]; SLE mice): not the CD4 and CD8 positive T cell populations
- circulating T cell leukocyte population ([3]; SLE mice): significantly altered in SLE and inhibited
- circulating double negative T cells ([3]; SLE mice): only the double negative cells
- circulating leukocytes ([3]; SLE mice vs vehicle): significantly reduced
- circulating neutrophils, monocytes, eosinophils, basophils ([3]; SLE mice vs vehicle): not neutrophils, monocytes, eosinophils, or basophils
- red blood cells or platelets ([3]; SLE mice vs vehicle): no effects observed
- white blood cell (WBC) population ([3]; SLE mice vs vehicle): specifically targets the white blood cell (WBC) population
- levels of IgG [4]: not reduced
- levels of double-stranded DNA (anti dsDNA IgG) [4]: not reduced
